Assay results from US20110178104A1, “Anti-Heparin Compounds” (POLYMEDIX INC., priority 2010, published 2011).
Read-outs that look alike come from different tables or passages of the source. Starred links: 1 amine or outer side, 2 acyl side, 3 side chain; linkers in the order of their positions; H or OH if unused. Non-standard residues stand in square brackets, D forms with d. Residues, ends and D or L forms follow the SMILES beside them. *: point of attachment. NH(3-CONH2-4-OMe-phenyl) = COc1ccc(N*)cc1C(N)=O; 3Abz(6-OMe) = COc1ccc(N[*:1])cc1C(=O)[*:2]; dOrn = NCCC[C@@H](N)C(=O)O

Columns and labels:
[1] = test system: unfractionated heparin (UFH); assay: aPTT clotting assay, UFH 0.2 U/mL in plasma (Example 7); assay type: biochemical
Experimental: aPTT clotting Assay. Unfractionated heparin was mixed with plasma at a final concentration of 0.2 U/mL. […] The ACL Elite Hemostasis analyzer (Beckman Coulter™) was used to add aPTT reagent (HemosIL SynthASil) to supplemented plasma. Clotting was initiated by addition of CaCl2 and time to clot was recorded.

enoxaparin (ENOX) = assay: FXa chromogenic assay (absence of plasma), enoxaparin
Experimental: Human antithrombin was mixed with an anticoagulant agent (a LMWH or fondaparinux); final concentrations were 0.22 μg/mL for the LMWHs and 0.07 μg/mL for fondaparinux. […] Absorbance was read every 30 seconds over a 4 minute period in a SpectraMax 250 instrument (Molecular Devices, Inc.). EC50 values are determined by a curve-fit program (SoftMax Pro) using the following formula:
FXa Chromogenic Assay (absence of plasma). Human antithrombin was mixed with an anticoagulant (a LMWH or fondaparinux); final concentrations were 0.1 μg/mL for the LMWHs and 0.02 μg/mL for fondaparinux. […] Absorbance was read every 30 seconds over a 4 minute period in a SpectraMax 250 instrument (Molecular Devices Inc.™) The slope of absorbance vs time was calculated for each compound concentration. EC50 values were determined using a curve fit program (GraphPad Prism 5).

fondaparinux (FONDAPX) = assay: FXa chromogenic assay (absence of plasma), fondaparinux
[2] = enoxaparin 0.1 μg/mL, absence of plasma
[3] = fondaparinux 0.02 μg/mL, absence of plasma

| Compound | UFH (aPTT) EC50 ([1]; UFH 0.2 U/mL in plasma) | ENOX (FXa) EC50 (enoxaparin (ENOX); [2]) [µg/mL] | FONDAPX (FXa) EC50 (fondaparinux (FONDAPX); [3]) | UFH (aPTT) EC50 [1] [µg/mL] | ENOX (FXa) EC50 (enoxaparin (ENOX)) [µg/mL] | FONDAPX (FXa) EC50 (fondaparinux (FONDAPX)) [µg/mL] |
| --- | --- | --- | --- | --- | --- | --- |
| COc1c(NC(=O)[C@@H](CCCCN)NC(=O)c2cccc(NC(=O)[C@@H](CCCCN)NC(=O)c3cccc(NC(=O)[C@@H](CCCCN)NC(=O)c4cccc(NC(=O)[C@H](N)CCCCN)c4OC)c3OC)c2OC)cccc1C(N)=O [Compound 34] | inactive | 45.00 | inactive |  |  |  |
| COc1ccc(C(=O)N[C@H](CCCCN)C(=O)Nc2cc(C(=O)N[C@H](CCCCN)C(=O)Nc3cc(C(=O)N[C@H](CCCCN)C(=O)Nc4cc(C(N)=O)ccc4OC)ccc3OC)ccc2OC)cc1NC(=O)[C@H](N)CCCCN [Compound 35] | 30.65 µg/mL | 45.00 | inactive |  |  |  |
| COc1ccc(NC(=O)[C@@H](CCCNC(=N)N)NC(=O)c2cc(NC(=O)[C@@H](CCCNC(=N)N)NC(=O)c3cc(NC(=O)[C@@H](CCCNC(=N)N)NC(=O)c4cc(NC(=O)[C@@H](CCCNC(=N)N)NC(=O)CCCCNC(=N)N)ccc4OC)ccc3OC)ccc2OC)cc1C(N)=O [Compound 38] | 2.37 µg/mL | 0.18 | 1.94 µg/mL |  |  |  |
| COc1ccc(NC(=O)[C@@H](CCCN)NC(=O)c2cc(NC(=O)[C@@H](CCCNC(=N)N)NC(=O)c3cc(NC(=O)[C@@H](CCCN)NC(=O)c4cc(NC(=O)[C@H](N)CCCNC(=N)N)ccc4OC)ccc3OC)ccc2OC)cc1C(N)=O [Compound 39] |  |  |  | 3.07 | 1.11 | 17.09 |
| COc1ccc(NC(=O)[C@@H](CCCN)NC(=O)c2cc(NC(=O)[C@@H](CCCN)NC(=O)c3cc(NC(=O)[C@@H](CCCN)NC(=O)c4cc(NC(=O)[C@H](N)CCCN)ccc4OC)ccc3OC)ccc2OC)cc1C(N)=O [Compound 40] | 2.88 µg/mL | 1.84 | >90 µg/mL |  |  |  |
| COc1ccc(NC(=O)[C@@H](CCCNC(=N)N)NC(=O)c2cc(NC(=O)[C@@H](CCCNC(=N)N)NC(=O)c3cc(NC(=O)[C@@H](CCCNC(=N)N)NC(=O)c4cc(NC(=O)[C@H](N)CCCNC(=N)N)ccc4OC)ccc3OC)ccc2OC)cc1C(=O)NCCCCCN [Compound 41] | 1.65 µg/mL | 0.16 | 3.85 µg/mL |  |  |  |
| COc1ccc(NC(=O)[C@@H](CCCNC(=N)N)NC(=O)c2cc(NC(=O)[C@@H](CCCNC(=N)N)NC(=O)c3cc(NC(=O)[C@H](N)CCCNC(=N)N)ccc3OC)ccc2OC)cc1C(=O)N[C@H](CCCNC(=N)N)C(N)=O [Compound 42] | 2.34 µg/mL | 4.07 | 70.66 µg/mL |  |  |  |
| COc1ccc(NC(=O)[C@@H](CCCCN)NC(=O)c2cc(NC(=O)[C@@H](CCCNC(=N)N)NC(=O)c3cc(NC(=O)[C@@H](CCCCN)NC(=O)c4cc(NC(=O)[C@H](N)CCCNC(=N)N)ccc4OC)ccc3OC)ccc2OC)cc1C(N)=O [Compound 43] | 2.33 µg/mL | 0.36 | 4.44 µg/mL |  |  |  |
| COc1ccc(NC(=O)[C@@H](C)NC(=O)CCCCNC(=N)N)cc1C(=O)N[C@H](CCCNC(=N)N)C(=O)Nc1ccc(OC)c(C(=O)N[C@H](CCCNC(=N)N)C(=O)Nc2ccc(OC)c(C(=O)N[C@H](CCCNC(=N)N)C(=O)Nc3ccc(OCCNC(=N)N)c(C(N)=O)c3)c2)c1 [Compound 44] | 2.38 µg/mL | 0.21 | 2.91 µg/mL |  |  |  |
| COc1ccc(NC(=O)[C@H](CCCNC(=N)N)NC(=O)c2cc(NC(=O)[C@H](CCCNC(=N)N)NC(=O)c3cc(NC(=O)[C@H](CCCNC(=N)N)NC(=O)c4cc(NC(=O)[C@@H](N)CCCNC(=N)N)ccc4OC)ccc3OC)ccc2OC)cc1C(N)=O [Compound 45] | 2.35 µg/mL | 0.23 | 2.61 µg/mL |  |  |  |
| COc1ccc(NC(=O)[C@@H](CCCN)NC(=O)[C@@H](CCCN)NC(=O)c2cc(NC(=O)[C@@H](CCCN)NC(=O)c3cc(NC(=O)[C@@H](CCCNC(=N)N)NC(=O)c4cc(NC(=O)[C@H](N)CCCN)ccc4OC)ccc3OC)ccc2OC)cc1C(N)=O [Compound 46] (H-[dOrn][3Abz(6-OMe)][dR][3Abz(6-OMe)][dOrn][3Abz(6-OMe)][dOrn][dOrn]-{NH(3-CONH2-4-OMe-phenyl)}) | inactive | 13.76 | 76.88 µg/mL |  |  |  |
| COc1ccc(NC(=O)[C@@H](CCCNC(N)=O)NC(=O)c2cc(NC(=O)[C@@H](CCCNC(=N)N)NC(=O)c3cc(NC(=O)[C@@H](CCCNC(N)=O)NC(=O)c4cc(NC(=O)[C@H](N)CCCNC(=N)N)ccc4OC)ccc3OC)ccc2OC)cc1C(N)=O [Compound 47] |  |  |  | 3.23 | 0.36 | 6.52 |
| COc1ccc(NC(=O)[C@@H](CCCN)NC(=O)c2cc(NC(=O)[C@@H](CCCNC(=N)N)NC(=O)c3cc(NC(=O)[C@@H](CCCNC(=N)N)NC(=O)c4cc(NC(=O)CCCCN)ccc4OC)ccc3OC)ccc2OC)cc1C(N)=O [Compound 48] | 1.72 µg/mL | 0.30 | 3.35 µg/mL |  |  |  |
| COc1ccc(NC(=O)[C@@H](CCCNC(=N)N)NC(=O)c2cc(NC(=O)[C@@H](CCCNC(=N)N)NC(=O)c3cc(NC(=O)[C@@H](CCCNC(=N)N)NC(=O)c4cc(NC(=O)[C@@H](C)NC(=O)CCCCNC(=N)N)ccc4OC)ccc3OC)ccc2OC)cc1C(N)=O [Compound 49] | 1.42 µg/mL | 0.16 | 1.03 µg/mL |  |  |  |
| COc1ccc(NC(=O)[C@@H](CCCNC(=N)N)NC(=O)c2cc(NC(=O)[C@@H](CCCNC(=N)N)NC(=O)c3cc(NC(=O)[C@@H](CCCNC(=N)N)NC(=O)c4cc(NC(=O)CCCCNC(=N)N)ccc4OC)ccc3OC)ccc2OC)cc1C(N)=O [Compound 50] | 1.67 µg/mL | 0.22 | 1.12 µg/mL |  |  |  |
| COc1ccc(NC(=O)[C@@H](CCCNC(=N)N)NC(=O)c2cc(NC(=O)[C@@H](CCCNC(=N)N)NC(=O)c3cc(NC(=O)[C@@H](CCCNC(=N)N)NC(=O)c4cc(NC(C)=O)ccc4OC)ccc3OC)ccc2OC)cc1C(=O)NCCN [Compound 52] | 2.13 µg/mL | 0.35 | 1.90 µg/mL |  |  |  |
| COc1ccc(NC(=O)[C@@H](CCCNC(=N)N)NC(=O)c2cc(NC(=O)[C@@H](CCCNC(=N)N)NC(=O)c3cc(NC(=O)[C@@H](CCCNC(=N)N)NC(=O)c4cc(NC(C)=O)ccc4OC)ccc3OC)ccc2OC)cc1C(=O)NCCCCCN [Compound 53] | 2.08 µg/mL | 0.21 | 1.12 µg/mL |  |  |  |
| COc1ccc(NC(=O)[C@H](N)CCCNC(=N)N)cc1C(=O)N[C@H](CCCNC(=N)N)C(=O)Nc1ccc(OC)c(C(=O)N[C@H](CCCNC(=N)N)C(=O)Nc2ccc(OC)c(C(=O)N[C@H](CCCNC(=N)N)C(=O)Nc3cccc(C(N)=O)c3)c2)c1 [Compound 67] | 1.75 µg/mL | 0.33 | 5.19 µg/mL |  |  |  |
| COc1ccc(NC(=O)[C@@H](CCCNC(=N)N)NC(=O)c2cccc(NC(=O)[C@@H](CCCNC(=N)N)NC(=O)c3cc(NC(=O)[C@@H](CCCNC(=N)N)NC(=O)c4cc(NC(=O)[C@H](N)CCCNC(=N)N)ccc4OC)ccc3OC)c2)cc1C(N)=O [Compound 68] | 1.99 µg/mL | 0.29 | 4.26 µg/mL |  |  |  |
| COc1ccc(NC(=O)[C@@H](CCCNC(=N)N)NC(=O)c2cc(NC(=O)[C@@H](CCCNC(=N)N)NC(=O)c3cccc(NC(=O)[C@@H](CCCNC(=N)N)NC(=O)c4cc(NC(=O)[C@H](N)CCCNC(=N)N)ccc4OC)c3)ccc2OC)cc1C(N)=O [Compound 69] | 1.58 µg/mL | 0.19 | 2.74 µg/mL |  |  |  |
| COc1ccc(NC(=O)[C@@H](CCCNC(=N)N)NC(=O)c2cc(NC(=O)[C@@H](CCCNC(=N)N)NC(=O)c3cc(NC(=O)[C@@H](CCCNC(=N)N)NC(=O)c4cc(NC(=O)[C@H](N)CO)ccc4OC)ccc3OC)ccc2OC)cc1C(N)=O [Compound 70] | 1.55 µg/mL | 0.33 | 1.59 µg/mL |  |  |  |
| COc1ccc(NC(=O)[C@@H](CCCNC(=N)N)NC(=O)c2cc(NC(=O)[C@@H](CCCNC(=N)N)NC(=O)c3cc(NC(=O)[C@@H](CCCNC(=N)N)NC(=O)c4cc(NC(=O)[C@H](N)Cc5c[nH]c6ccccc56)ccc4OC)ccc3OC)ccc2OC)cc1C(N)=O [Compound 71] | 2.58 µg/mL | 0.87 | 0.86 µg/mL |  |  |  |
| COc1ccc(NC(=O)[C@@H](CCCNC(=N)N)NC(=O)c2cc(NC(=O)[C@@H](CCCNC(=N)N)NC(=O)c3cc(NC(=O)[C@@H](CCCNC(=N)N)NC(=O)c4cc(NC(=O)[C@H](N)CC(N)=O)ccc4OC)ccc3OC)ccc2OC)cc1C(N)=O [Compound 72] | 2.11 µg/mL | 0.22 | 1.22 µg/mL |  |  |  |
